Data as given in ChEMBL document CHEMBL4177599, “The antitubercular activity of various nitro(triazole/imidazole)-based compounds” (Bioorg Med Chem, 2017).
Converted amounts (≈) assume the structure as drawn.

Key:
[1] = tested on: Mycobacterium tuberculosis; assay: Bactericidal activity against Mycobacterium tuberculosis H37Rv ATCC 27294 assessed as concentration required for 2 log kill after 21 days under aerobic condition by colony forming assay; type: functional; conditions: for MBC: H37Rv ATCC 27294, 504 h
[2] = tested on: Vero; assay: Cytotoxicity against African green monkey Vero cells after 2 days by CellTiter-Glo luminescent cell viability assay; type: ADME, cell-based; conditions: Chlorocebus sabaeus, 48 h
[3] = Solubility of compound in Middlebrook 7H9 broth media at pH 6.4 at 200 uM after 90 mins by UV-VIS spectrophotometric method; type: physicochemical; conditions: buffer, pH 6.4, 1.5 h
[4] = tested on: Mycobacterium tuberculosis; assay: Antitubercular activity against luxABCDE expressing Mycobacterium tuberculosis H37Rv infected in mouse J774 macrophages assessed as log reduction in bacterial colonies at 10.9 uM measured after 4 days under aerobic condition by luminescence assay; type: functional
[5] = tested on: Mycobacterium tuberculosis; assay: Antitubercular activity against Mycobacterium tuberculosis H37Rv ATCC 27294 after 10 days under low oxygen condition followed by incubation under aerobic condition for 28 hrs by LORA; type: functional, organism-based
[6] = tested on: Mycobacterium tuberculosis; assay: Potency index, ratio of compound MIC to metronidazole MIC for antitubercular activity against Mycobacterium tuberculosis H37Rv ATCC 27294 under low oxygen condition; type: functional
[7] = tested on: Mycobacterium tuberculosis; assay: Antitubercular activity against Mycobacterium tuberculosis H37Rv ATCC 27294 after 5 days under aerobic condition; type: functional, organism-based; conditions: for IC50 / IC90 / MIC: H37Rv ATCC 27294, 120 h
[8] = tested on: Mycobacterium tuberculosis; assay: Antitubercular activity against luxABCDE expressing Mycobacterium tuberculosis H37Rv infected in mouse J774 macrophages assessed as log reduction in bacterial colonies at 2.6 uM measured after 4 days under aerobic condition by luminescence assay; type: functional
[9] = tested on: Mycobacterium tuberculosis; assay: Antitubercular activity against luxABCDE expressing Mycobacterium tuberculosis H37Rv infected in mouse J774 macrophages assessed as log reduction in bacterial colonies at 30 uM measured after 4 days under aerobic condition by luminescence assay; type: functional
[10] = tested on: Mycobacterium tuberculosis; assay: Antitubercular activity against luxABCDE expressing Mycobacterium tuberculosis H37Rv infected in human THP1 cells measured after 3 days by luminescence assay; type: functional, organism-based; conditions: THP-1, 72 h
[11] = Protein binding in human plasma at 5 uM after 4 hrs by LC-MS/MS analysis
[12] = Half life in human liver S9 microsomes at 1 uM in presence of NADPH by LC-MS/MS analysis
[13] = Half life in human liver S9 microsomes at 1 uM in absence of NADPH by LC-MS/MS analysis
[14] = human, caco-2, 2 h, 10 µM
Description: (§1) Apparent permeability of the compound across apical side to basolateral side in human Caco2 cells monolayer at 10 uM after 2 hrs by LC-MS/MS analysis

[15] = human, caco-2, 2 h, 10 µM; remark: listed apart in the source
Description: (§2) Apparent permeability of the compound across basolateral side to apical side in human Caco2 cells monolayer at 10 uM after 2 hrs by LC-MS/MS analysis

[16] = tested on: Mycobacterium tuberculosis; assay: Antitubercular activity against luxABCDE expressing Mycobacterium tuberculosis H37Rv infected in mouse J774 macrophages assessed as log reduction in bacterial colonies at 20 uM measured after 4 days under aerobic condition by luminescence assay; type: functional
[17] = tested on: HepG2; assay: Cytotoxicity against human HepG2 cells at 100 uM after 3 days by CellTiter-Glo luminescent cell viability assay; type: cell-based; conditions: HepG2, 72 h
[18] = in vitro; conditions: human, Caco-2
Description: Efflux ratio of apparent permeability from basolateral to apical over apical to basolateral side in human Caco2 cells monolayer at 10 uM after 1 hr by LC-MS/MS analysis

[19] = Apparent permeability of the compound across basolateral side to apical side in human Caco2 cells monolayer at 10 uM after 1 hr by LC-MS/MS analysis; type: ADME, cell-based; conditions: Caco-2
[20] = tested on: L6; assay: Cytotoxicity against rat L6 cells after 2 days by CellTiter-Glo luminescent cell viability assay; type: ADME, cell-based; conditions: L6, 48 h
[21] = Apparent permeability of the compound across apical side to basolateral side in human Caco2 cells monolayer at 10 uM after 1 hr by LC-MS/MS analysis; type: ADME, cell-based; conditions: Caco-2
[22] = Fraction unbound in human plasma at 5 uM after 4 hrs by LC-MS/MS analysis; type: ADME, cell-free
[23] = in vitro; conditions: human, Caco-2; remark: listed apart in the source
Description: Efflux ratio of apparent permeability from basolateral to apical over apical to basolateral side in human Caco2 cells monolayer at 10 uM after 2 hrs by LC-MS/MS analysis

[24] = in vitro; conditions: human, THP1 cells
Description: Selectivity index, ratio of IC50 for human THP1 cells to IC50 for Mycobacterium tuberculosis H37Rv under aerobic condition

[25] = Intrinsic clearance in human liver S9 microsomes at 1 uM in presence of NADPH by LC-MS/MS analysis; type: ADME, S9 microsome; conditions: read-out: CLH
[26] = tested on: THP-1; assay: Cytotoxicity against human THP1 cells after 3 days by luminescence assay; type: cell-based; conditions: THP-1, 72 h
[27] = Intrinsic clearance in human liver S9 microsomes at 1 uM in absence of NADPH by LC-MS/MS analysis; type: ADME, S9 microsome; conditions: read-out: CLH
[28] = tested on: Mycobacterium tuberculosis; assay: Potency index, ratio of compound MIC to ethambutol MIC for antitubercular activity against Mycobacterium tuberculosis H37Rv ATCC 27294 under aerobic condition; type: functional
[29] = in vitro; conditions: human, Caco-2; remark: listed apart in the source
Description: as §1

[30] = in vitro; conditions: human, Caco-2; remark: listed apart in the source
Description: as §2

[31] = tested on: Mycobacterium tuberculosis; assay: Antitubercular activity against luxABCDE expressing Mycobacterium tuberculosis H37Rv infected in mouse J774 macrophages assessed as log reduction in bacterial colonies at 7.2 uM measured after 4 days under aerobic condition by luminescence assay; type: functional
[32] = tested on: Mycobacterium tuberculosis; assay: Antitubercular activity against luxABCDE expressing Mycobacterium tuberculosis H37Rv infected in mouse J774 macrophages assessed as log reduction in bacterial colonies at 200 uM measured after 4 days under aerobic condition by luminescence assay; type: functional

O=C(NCCCCn1cnc([N+](=O)[O-])n1)c1nc2ccccc2s1
MBC [1]: 10.9 µM (≈ 3.78 µg/mL)
IC50 [2]: > 100 µM
solubility [3]: Soluble
log(activity) [4]: 2.4
IC50 [5]: 26 µM
IC90 [5]: 29.2 µM
MIC [5]: 23.4 µM (≈ 8.11 µg/mL)
Ratio [6]: 6 - 9
IC50 [7]: 4.9 µM
IC90 [7]: 7.4 µM
MIC [7]: 6.7 µM (≈ 2.32 µg/mL)

NNC(=O)c1ccncc1 [ISONIAZID]
log(activity) [8]: 2.6
log(activity) [9]: 2.7
IC50 [10]: 190 nM
IC90 [10]: 0.24 µM
IC50 [7]: 0.131 µM
IC90 [7]: 0.2 µM
MIC [7]: 0.313 µM (≈ 0.0429 µg/mL)

O=C(Cn1cnc([N+](=O)[O-])n1)Nc1nc(-c2ccc(F)c(F)c2)cs1
fraction unbound at 4 h, 5 µM [11]: 0.002
half-life at 1 µM [12]: > 180 min
half-life at 1 µM [13]: > 180 min
Papp [14]: 37.7 ×10⁻⁶ cm/s
MBC [1]: 20 µM (≈ 7.33 µg/mL)
Papp [15]: 19.9 ×10⁻⁶ cm/s
IC50 [2]: 55 µM
log(activity) [16]: 2.4
IC50 [5]: 8.7 µM
IC90 [5]: 39 µM
MIC [5]: > 200 µM
IC50 [17]: 78 µM
IC50 [7]: 27 µM
IC90 [7]: 39 µM
MIC [7]: 37 µM (≈ 13.6 µg/mL)

O=C(CCn1cnc([N+](=O)[O-])n1)Nc1cccc(OCc2ccccc2)c1
fraction unbound at 4 h, 5 µM [11]: 0.033
efflux ratio at 1 h, 10 µM [18]: 0.79
Papp B→A at 1 h, 10 µM [19]: 17.6 ×10⁻⁶ cm/s
half-life at 1 µM [12]: 124 min
IC50 [20]: 40 µM
half-life at 1 µM [13]: > 180 min
Papp A→B at 1 h, 10 µM [21]: 22.2 ×10⁻⁶ cm/s
fraction unbound at 4 h, 5 µM [22]: 0.042
efflux ratio at 2 h, 10 µM [23]: 0.67
selectivity ratio [24]: > 10
microsomal CLint at 1 µM [25]: 18.7 µL/min/mg
Activity [1]: Dose-dependent effect
MBC [1]: 0.75 µM (≈ 0.276 µg/mL)
IC50 [26]: > 50 µM
IC50 [10]: 1300 nM
IC90 [10]: 2.9 µM
microsomal CLint at 1 µM [27]: < 12.8 µL/min/mg
Ratio [28]: 2
IC50 [5]: 9.2 µM
IC90 [5]: 41 µM
MIC [5]: > 200 µM
Papp A→B at 2 h, 10 µM [29]: 15.8 ×10⁻⁶ cm/s
IC50 [17]: > 100 µM
Activity [7]: Dose-dependent effect
IC50 [7]: 1.7 to 3.2 µM
IC90 [7]: 2.8 to 3.6 µM
MIC [7]: 3 to 4.1 µM (≈ 1.1 to 1.51 µg/mL)
Papp B→A at 2 h, 10 µM [30]: 10.5 ×10⁻⁶ cm/s

CC(C)NCC(O)COc1cccc2ccccc12 (stereo not given) [PROPRANOLOL]
fraction unbound at 4 h, 5 µM [11]: 0.199
efflux ratio at 1 h, 10 µM [18]: 2.5
Papp B→A at 1 h, 10 µM [19]: 43.3 ×10⁻⁶ cm/s
fraction unbound at 4 h, 5 µM [22]: 0.244
efflux ratio at 2 h, 10 µM [23]: 0.83 to 3.1
Papp A→B at 2 h, 10 µM [29]: 8.8 to 25.4 ×10⁻⁶ cm/s
Papp B→A at 2 h, 10 µM [30]: 21.1 to 27.3 ×10⁻⁶ cm/s

O=C(CCn1cnc([N+](=O)[O-])n1)Nc1cccc(-c2ccccc2)c1
fraction unbound at 4 h, 5 µM [11]: 0.042
efflux ratio at 1 h, 10 µM [18]: 0.79
Papp B→A at 1 h, 10 µM [19]: 17.5 ×10⁻⁶ cm/s
half-life at 1 µM [12]: > 180 min
IC50 [20]: 36 µM
half-life at 1 µM [13]: > 180 min
Papp A→B at 1 h, 10 µM [21]: 22.2 ×10⁻⁶ cm/s
fraction unbound at 4 h, 5 µM [22]: 0.033
efflux ratio at 2 h, 10 µM [23]: 0.39
selectivity ratio [24]: > 10
microsomal CLint at 1 µM [25]: < 12.8 µL/min/mg
MBC [1]: 6.8 µM (≈ 2.29 µg/mL)
Activity ([1]; TDE = time-dependent effect): Tde
IC50 [26]: > 50 µM
IC50 [10]: 2300 nM
IC90 [10]: 4.1 µM
microsomal CLint at 1 µM [27]: < 12.8 µL/min/mg
IC50 [5]: 7.8 µM
IC90 [5]: 44 µM
MIC [5]: > 200 µM
Papp A→B at 2 h, 10 µM [29]: 18 ×10⁻⁶ cm/s
IC50 [17]: > 100 µM
IC50 [7]: 3.6 to 6.1 µM
IC90 [7]: 6.8 to 7.1 µM
MIC [7]: 6.8 to 8.4 µM (≈ 2.29 to 2.83 µg/mL)
Activity ([7]; TDE = time-dependent effect): Tde
Papp B→A at 2 h, 10 µM [30]: 7 ×10⁻⁶ cm/s

O=C(Cn1cnc([N+](=O)[O-])n1)N1CCN(Cc2ccc(Cl)c(Cl)c2)CC1
fraction unbound at 4 h, 5 µM [11]: 0.076
half-life at 1 µM [12]: 72.3 min
half-life at 1 µM [13]: 174 min
selectivity ratio [24]: > 10
MBC [1]: 5.6 µM (≈ 2.24 µg/mL)
IC50 [26]: > 50 µM
IC50 [10]: 4000 nM
IC90 [10]: 6.7 µM
IC50 [5]: 17 µM
IC90 [5]: 47 µM
MIC [5]: 140 µM (≈ 55.9 µg/mL)
Papp A→B at 2 h, 10 µM [29]: 16.3 ×10⁻⁶ cm/s
IC50 [17]: 77 µM
IC50 [7]: 5.9 µM
IC90 [7]: 7.7 µM
MIC [7]: 6.6 µM (≈ 2.63 µg/mL)
Papp B→A at 2 h, 10 µM [30]: 14.8 ×10⁻⁶ cm/s

O=C(NCCCCn1cnc([N+](=O)[O-])n1)c1sc2ccccc2c1Cl
IC50 [20]: > 264 µM
log(activity) [31]: 2.2
MBC [1]: 7.2 µM (≈ 2.73 µg/mL)
IC50 [2]: > 100 µM
IC50 [5]: 35.5 µM
IC90 [5]: 61.4 µM
MIC [5]: 21.5 µM (≈ 8.17 µg/mL)
Ratio [6]: 6 - 9
IC50 [7]: 4 µM
IC90 [7]: 6.4 µM
MIC [7]: 6.1 µM (≈ 2.32 µg/mL)

COc1ccc2c(c1)[C@]13CCCC[C@@H]1[C@H](C2)N(C)CC3 [DEXTROMETHORPHAN]
half-life at 1 µM [12]: 92.5 to 95.3 min
microsomal CLint at 1 µM [25]: 24.2 µL/min/mg
microsomal CLint at 1 µM [27]: < 12.8 µL/min/mg

O=C(Cn1cnc([N+](=O)[O-])n1)Nc1ccc(Oc2ccc(Cl)cc2)cc1
MBC [1]: 100 µM (≈ 37.4 µg/mL)
log(activity) [32]: 2.6
IC50 [2]: 19 µM
IC50 [5]: 13 µM
IC90 [5]: 94 µM
MIC [5]: > 200 µM
IC50 [7]: 51 µM
IC90 [7]: 100 µM
MIC [7]: 94 µM (≈ 35.1 µg/mL)

O=C(Cn1ccnc1[N+](=O)[O-])Nc1ccc(Oc2ccccc2)cc1
IC50 [20]: 63 µM
MBC [1]: 100 µM (≈ 33.8 µg/mL)
log(activity) [32]: 2.7
IC50 [2]: 98 µM
IC50 [5]: 14 µM
IC90 [5]: 71 µM
MIC [5]: > 200 µM
IC50 [7]: 60 µM
IC90 [7]: 90 µM
MIC [7]: 98 µM (≈ 33.2 µg/mL)
